These results are taken from ChEMBL document CHEMBL5038581, “Design, synthesis, and biological evaluation of novel dual inhibitors targeting lysine specific demethylase 1 (LSD1) and histone deacetylases (HDAC) for treatment of gastric cancer” (Eur J Med Chem, 2021).

The source made the active and inactive calls. The rule behind the calls is not given here.

One data set deals with Histone deacetylase 2 (Homo sapiens, UniProt Q92769).
The target in a further data set is T1, CYP1A2 (Homo sapiens, UniProt P05177).
T1 sequence (P05177 whole entry): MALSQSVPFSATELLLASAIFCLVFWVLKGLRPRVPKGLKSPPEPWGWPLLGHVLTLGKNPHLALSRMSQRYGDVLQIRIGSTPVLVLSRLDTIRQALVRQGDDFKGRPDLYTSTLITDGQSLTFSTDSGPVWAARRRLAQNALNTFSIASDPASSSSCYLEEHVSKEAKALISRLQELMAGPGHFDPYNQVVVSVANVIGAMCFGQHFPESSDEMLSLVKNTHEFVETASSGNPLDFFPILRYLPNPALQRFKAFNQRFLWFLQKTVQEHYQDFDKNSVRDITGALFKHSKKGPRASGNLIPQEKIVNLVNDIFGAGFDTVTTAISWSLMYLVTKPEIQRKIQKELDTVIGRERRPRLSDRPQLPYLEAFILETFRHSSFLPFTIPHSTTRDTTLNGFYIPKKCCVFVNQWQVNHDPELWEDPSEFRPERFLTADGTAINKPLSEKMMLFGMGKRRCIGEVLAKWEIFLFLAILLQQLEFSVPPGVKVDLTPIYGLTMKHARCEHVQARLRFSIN
In words: Inhibition of CYP1A2 (unknown origin) at 10 uM using phenacetin as substrate relative to control. The format is ADME. The settings on record: probe phenacetin.

In another data set the test system is NCI-N87. In words: cells. The settings on record: Homo sapiens, NCI-N87, 72 h.
The subject of data set [1] is MGC-803. Description: Inhibition of cell migration in human MGC-803 cells 0.2 to 0.6 uM up to 24 hrs by Hoechst 33258 staining based transwell migration assay. The format is functional. The settings on record: dose 0.2-0.6 µM, time hrs <=24.
Data set [2] has as its system MGC-803. Description: Inhibition of cell migration in human MGC-803 cells assessed as upregulation of ZO-1 at 0.2 to 0.6 uM for 48 hrs by western blot analysis. The format is functional, cell-based. The settings on record: dose 0.2-0.6 µM. Background: Immunoblotting shows a protein as a band on a membrane.
Data set [3] relates to MGC-803. Description: Inhibition of colony formation in human MGC-803 cells assessed as reduction in colony formation at 0.2 to 0.6 uM measured after 7 days by crystal violet staining based microscopic analysis. The format is functional, cell-based. Conditions: dose 0.2-0.6 µM, time 7.0 day.
For another data set, the system named is AGS. In words: cells. The settings on record: Homo sapiens, 72 h.
The test system of another data set is SNU1. In words: cells. Conditions: Homo sapiens, SNU1, 72 h.
In another data set the test system is BGC-823. In words: cells. The settings on record: Homo sapiens, BGC-823, 72 h.
In data set [4] the test system is MGC-803. Description: Induction of apoptosis in human MGC-803 cells assessed as apoptotic cells at 5 uM incubated for 48 hrs by annexin V-FITC and PI staining based flowcytometry analysis (Rvb =4.3 %). The format is functional.
The subject of the next data set is MKN-45. In words: cells. Conditions: Homo sapiens, MKN-45, 72 h.
In data set [5] the test system is MGC-803. In words: Inhibition of cell migration in human MGC-803 cells assessed as upregulation of E-cadherin at 0.2 to 0.6 uM for 48 hrs by western blot analysis. The format is functional, cell-based. The settings on record: dose 0.2-0.6 µM.
For data set [6], the system named is MGC-803. Description: Inhibition of cell migration in human MGC-803 cells assessed as downregulation of Vimentin at 0.2 to 0.6 uM for 48 hrs by western blot analysis. The settings on record: dose 0.2-0.6 µM. It is filed as functional, cell-based.
The next data set deals with MKN-1. Description: cells. Conditions: Homo sapiens, MKN-1, 72 h.
Data set [7] relates to MGC-803. Description: Inhibition of cell migration in human MGC-803 cells 4 to 8 uM up to 24 hrs by Hoechst 33258 staining based transwell migration assay. The format is functional. The settings on record: dose 4-8 µM, time hrs <=24.
Data set [8] has as its system MGC-803. In words: Inhibition of cell migration in human MGC-803 cells assessed as upregulation of E-cadherin at 2 to 8 uM for 48 hrs by western blot analysis. It is filed as functional, cell-based. Conditions: dose 2-8 µM.
For data set [9], the system named is MGC-803. In words: Inhibition of cell migration in human MGC-803 cells assessed as upregulation of ZO-1 at 2 to 8 uM for 48 hrs by western blot analysis. The settings on record: dose 2-8 µM. It is filed as functional, cell-based.
The test system of data set [10] is MGC-803. Description: Inhibition of cell migration in human MGC-803 cells at 2 to 8 uM up to 24 hrs by wound healing assay. The format is functional, cell-based. The settings on record: dose 2-8 µM, time hrs <=24.
Data set [11] deals with MGC-803. Description: Inhibition of colony formation in human MGC-803 cells assessed as reduction in colony formation at 4 to 8 uM measured after 7 days by crystal violet staining based microscopic analysis. It is filed as functional, cell-based. The settings on record: dose 4-8 µM, time 7.0 day.
Data set [12] deals with MGC-803. In words: Inhibition of cell migration in human MGC-803 cells assessed as downregulation of Vimentin at 2 to 8 uM for 48 hrs by western blot analysis. The format is functional, cell-based. Conditions: dose 2-8 µM.

Histone deacetylase 2, sequence (Q92769 whole entry): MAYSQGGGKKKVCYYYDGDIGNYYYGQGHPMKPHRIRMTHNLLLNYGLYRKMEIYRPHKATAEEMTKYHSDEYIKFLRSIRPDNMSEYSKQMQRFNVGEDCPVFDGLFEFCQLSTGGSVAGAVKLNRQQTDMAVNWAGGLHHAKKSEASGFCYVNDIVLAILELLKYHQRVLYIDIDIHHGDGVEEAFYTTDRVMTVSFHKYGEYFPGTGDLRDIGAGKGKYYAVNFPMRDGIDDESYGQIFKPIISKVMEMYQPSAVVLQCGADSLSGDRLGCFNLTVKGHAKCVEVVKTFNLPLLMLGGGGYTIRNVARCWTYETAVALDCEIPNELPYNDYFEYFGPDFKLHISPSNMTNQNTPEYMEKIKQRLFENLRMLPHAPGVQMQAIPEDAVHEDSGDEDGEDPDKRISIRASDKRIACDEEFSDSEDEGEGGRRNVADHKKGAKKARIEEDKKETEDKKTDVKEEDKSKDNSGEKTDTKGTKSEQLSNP

Regarding `Cc1ccc(-c2cc(/C=C/c3ccc(C(=O)NO)cc3)ccn2)c(F)c1`, the IC50 at Histone deacetylase 2 stood at 404 nM; in the data set with NCI-N87, 230 nM; with AGS, 1560 nM; with SNU1, 1010 nM; with BGC-823, 1500 nM; in the data set on MKN-45, 1160 nM. The molecule further showed a half-maximal inhibitory concentration (IC50) with MKN-1 of 400 nM. At CYP1A2, this molecule registered an inhibition at 10 µM of 0.95%. Moreover, the inhibition result with MGC-803 [1] and in the data set on MGC-803 [3] was “Dose-Dependent Effect” throughout. Besides, the result in the data set with MGC-803 [2], with MGC-803 [5] and in the data set on MGC-803 [6] was Active. The Activity with MGC-803 [4] was 82.2%.
`O=C(NO)c1ccc(/C=C/c2ccnc(-c3ccccc3O)c2)cc1`: the inhibition result with MGC-803 [7] and with MGC-803 [10] was “Dose-Dependent Effect” in each case. The molecule further gave an inhibition at 10 µM at CYP1A2 of 48.4%. Besides, the result in the data set on MGC-803 [8], with MGC-803 [9] and in the data set with MGC-803 [12] was Active. Besides, the Activity entry is “Dose-Dependent Effect” with MGC-803 [11] and 71.9% with MGC-803 [4].

By IC50 is commonly meant the concentration that gives 50% inhibition. Read a low IC50 as higher potency. Usually inhibition stands for how much of the control response was suppressed.
